How the values were obtained:
Assay type in all cases: in vivo
[1] = tested on: mouse colorectal cancer cell line CT26; assay: Subcutaneous transplanted tumor of mouse colorectal cancer cell CT26 in mice; conditions: for Mean tumor weight (g) / Mean tumor inhibition rate (%): BalB/C mouse, CT26 tumor, once every two days for 20 days, cGAMP 5 mg/kg subcutaneous, oxaliplatin 2 mg/kg oral, platinum complexes 6 mg/kg oral; for Mean tumor weight (g): n = 10, mean ± SD; for Mean tumor inhibition rate (%): vs negative control group; for Inhibition of the growth of subcutaneous transplanted tumors (result in words): summary statement for all four tumor models (Tables 1-4), 20 days after administration, tumor weights significantly lower than negative control (P<0.05, P<0.01)
Experimental: (§1) BALB/c ordinary mice, male, 18-20 g in weight, 6-8 weeks old, SPF grade, purchased from Shanghai SLAC Laboratory Animal Co., Ltd.[Laboratory Animal Quality Certificate Number: SCXK (Shanghai) 2007-0005].
(§2) Mice are orally administrated, and [cis-Pt(NH3)2(cGAMP)] and the tetravalent platinum complex cis-[Pt(cGAMP)(NH3)2(Cl)(OH)] are both set to be 6 mg/kg in one dose group.
(§3) Positive control: cGAMP, 5 mg/kg in dose (subcutaneous) oxaliplatin, 2 mg/kg in dose (oral)
(§4) Administration routes: control group: cGAMP, 5 mg/kg in dose (subcutaneous)
(§5) Oxaliplatin, 2 mg/kg in dose (oral);
(§6) Immune activator platinum complex, 6 mg/kg in dose (oral)
(§7) Administration volume: 100 μl/animal; number of times of administration: continuous administration for 20 days, once every two days.
(§8) Mouse colorectal cancer cell line CT26, mouse Lewis lung cancer cell line LL/2, human ovarian cancer cell line SK-OV-3, and human melanoma cell line A375, which all purchased from the Cell Bank of the Chinese Academy of Sciences.
(§9) The 5 groups are administered once every two days for 20 consecutive days. 20 days later, the mice are killed and the tumors are weighed. Tumor inhibition rate=[1−mean tumor weight of experimental group/mean tumor weight of group A)]×100%.
(§10) Data is expressed with x±s, and processed with SPSS10.0 software. The significance of the difference between tumor weights of all groups is compared by a one-way ANOVA test. The significance level a=0.05.

[2] = tested on: human ovarian cancer cell line SK-OV-3; assay: Mouse subcutaneous transplanted tumor of human ovarian cancer cell line SK-OV-3; conditions: SK-OV-3 tumor, once every two days for 20 days, cGAMP 5 mg/kg subcutaneous, oxaliplatin 2 mg/kg oral, platinum complexes 6 mg/kg oral; for Mean tumor weight (g): n = 10, mean ± SD; for Mean tumor inhibition rate (%): vs negative control group
Experimental: as §1, §2, §3, §4, §5, §6, §7, §8, §9, §10

[3] = tested on: human melanoma cell line A375; assay: Mouse subcutaneous transplanted tumor of human melanoma cell line A375; conditions: once every two days for 20 days, cGAMP 5 mg/kg subcutaneous, oxaliplatin 2 mg/kg oral, platinum complexes 6 mg/kg oral; for Mean tumor weight (g): n = 10, mean ± SD; for Mean tumor inhibition rate (%): vs negative control group
Experimental: as §1, §2, §3, §4, §5, §6, §7, §8, §9, §10

[4] = tested on: mouse Lewis lung cancer cell line LL/2; assay: Subcutaneous transplanted tumor of mouse Lewis lung cancer cell line LL-2 in mice; conditions: C57 mouse, LL-2 tumor, once every two days for 20 days, cGAMP 5 mg/kg subcutaneous, oxaliplatin 2 mg/kg oral, platinum complexes 6 mg/kg oral; for Mean tumor weight (g): n = 10, mean ± SD; for Mean tumor inhibition rate (%): vs negative control group
Experimental: as §2, §3, §4, §5, §6, §7, §8, §9, §10

| Compound | Mean tumor weight (g) [1] | Mean tumor inhibition rate (%) [1] [%] | Inhibition of the growth of subcutaneous transplanted tumors (result in words) [1] | Mean tumor weight (g) [2] | Mean tumor inhibition rate (%) [2] [%] | Mean tumor weight (g) [3] | Mean tumor inhibition rate (%) [3] [%] | Mean tumor weight (g) [4] | Mean tumor inhibition rate (%) [4] [%] |
| --- | --- | --- | --- | --- | --- | --- | --- | --- | --- |
| O=C1[O][Pt]2([NH][C@@H]3CCCC[C@H]3[NH]2)[O]C1=O [Oxaliplatin, oxaliplatin] | 0.963 ± 0.223 (g) | 57.3 | obviously inhibit the growth of tumors | 0.989 ± 0.215 (g) | 62.6 | 0.989 ± 0.215 (g) | 62.4 | 0.963 ± 0.223 (g) | 62.4 |
| Nc1nc2c(ncn2[C@@H]2O[C@@H]3COP(=O)(O)O[C@H]4[C@@H](O)[C@H](n5cnc6c(N)ncnc65)O[C@@H]4COP(=O)(O)O[C@@H]2[C@@H]3O)c(=O)[nH]1 [cGAMP, Cyclic [G(2′,5′)pA(3′,5′)p]] | 0.840 ± 0.218 (g) | 62.8 | obviously inhibit the growth of tumors | 0.997 ± 0.212 (g) | 62.3 | 0.969 ± 0.216 (g) | 63.0 | 0.980 ± 0.214 (g) | 56.6 |
| cis-[Pt(cGAMP)(NH3)2(Cl)(OH)] [cGAMP-tetravalent cisplatin] | 0.689 ± 0.224 (g) | 69.5 | obviously inhibit the growth of tumors | 0.813 ± 0.226 (g) | 69.3 | 0.794 ± 0.224 (g) | 69.8 | 0.784 ± 0.232 (g) | 69.4 |
| cis-[Pt(cGAMP)(NH3)2] [cGAMP-cisplatin] | 0.648 ± 0.216 (g) | 71.3 | obviously inhibit the growth of tumors | 0.789 ± 0.218 (g) | 70.2 | 0.786 ± 0.218 (g) | 70.1 | 0.758 ± 0.226 (g) | 70.4 |

Source: US20200377545A1, “NOVEL ANTI-TUMOR COMPOUND AND APPLICATION THEREOF IN PREPARING ANTI-TUMOR DRUGS” (HANGZHOU XINGAO BIOTECHNOLOGY CO., LTD, priority 2018, published 2020)
